Literature values in US20260232560A1, “SKIN HEALTH BENEFITTING COMPOSITIONS” (priority 2023, published 2026).

Experiments:
[1] = background statement
[2] = poor solubility and permeability

| SMILES | antioxidant power relative to grape seed extract [1] | BCS class [2] |
| --- | --- | --- |
| CCCC\C=C/C=C/C=C\CCCCCCCC(=O)O [Punicic acid] | approximately 10 times |  |
| O=c1oc2c(O)c(O)cc3c(=O)oc4c(O)c(O)cc1c4c23 [Ellagic acid] |  | BCS Class IV |
